Experimental data reported in the NIST ThermoML archive (doi:10.1016/j.jct.2013.02.023).
Numbers after ± are expanded uncertainties.

Test: molar heat capacity at constant pressure
Details: 101.33 kPa, relaxation calorimetry - Quantum Design PPMS

O=P([O-])([O-])OP(=O)([O-])[O-].O=P([O-])([O-])OP(=O)([O-])[O-].O=P([O-])([O-])OP(=O)([O-])[O-].[Fe+3].[Fe+3].[Fe+3].[Fe+3] [iron(III) diphosphate]
molar heat capacity at constant pressure [J/K/mol]
Details | Crystal 1 | Crystal 2
45.43 K | – | 122.94 ± 2.5
45.64 K | – | 124.36 ± 2.5
45.84 K | – | 125.76 ± 2.5
46.02 K | – | 126.95 ± 2.5
46.22 K | – | 128.47 ± 2.6
46.44 K | – | 130.17 ± 2.6
46.64 K | – | 131.93 ± 2.6
46.84 K | – | 133.84 ± 2.7
47.05 K | – | 135.68 ± 2.7
47.24 K | – | 137.48 ± 2.8
47.38 K | – | 138.74 ± 2.8
47.44 K | – | 139.11 ± 2.8
47.58 K | – | 139.19 ± 2.8
47.6 K | 139.19 ± 3.4 | 139.19 ± 3.3
47.65 K | 138.86 ± 2.9 | –
47.77 K | 136.97 ± 2.8 | –
47.84 K | 134.84 ± 2.8 | –
47.97 K | 130.03 ± 2.7 | –
48.05 K | 126.52 ± 2.6 | –
48.16 K | 121.47 ± 2.5 | –
48.26 K | 116.89 ± 2.4 | –
48.36 K | 112.95 ± 2.3 | –
48.42 K | 110.73 ± 2.3 | –
48.55 K | 107.38 ± 2.2 | –
48.66 K | 105.62 ± 2.2 | –
48.76 K | 103.95 ± 2.1 | –
48.97 K | 102.08 ± 2.1 | –
49.16 K | 101.07 ± 2 | –
49.25 K | 100.78 ± 2 | –
49.37 K | 100.37 ± 2 | –
49.56 K | 99.82 ± 2 | –
49.74 K | 99.5 ± 2 | –
49.76 K | 99.49 ± 2 | –
49.97 K | 99.12 ± 2 | –
50 K | 99.09 ± 2.2 | –
50.16 K | 98.85 ± 2 | –
50.24 K | 98.89 ± 2 | –
50.37 K | 98.71 ± 2 | –
50.75 K | 98.49 ± 2 | –
51.26 K | 98.47 ± 2 | –
51.78 K | 98.62 ± 2 | –
52.26 K | 99.14 ± 2 | –
52.77 K | 99.39 ± 2 | –
53.27 K | 99.87 ± 2 | –
53.79 K | 100.51 ± 2 | –
53.8 K | 100.65 ± 2 | –
54.3 K | 101.12 ± 2 | –
54.8 K | 101.89 ± 2 | –
55 K | 102.2 ± 2.2 | –
55.3 K | 102.66 ± 2 | –
55.82 K | 103.45 ± 2.1 | –
56.32 K | 104.29 ± 2.1 | –
56.83 K | 105.21 ± 2.1 | –
57.33 K | 106.12 ± 2.1 | –
57.82 K | 106.98 ± 2.1 | –
58.35 K | 107.99 ± 2.2 | –
58.86 K | 109.04 ± 2.2 | –
59.33 K | 110.07 ± 2.2 | –
59.86 K | 111.09 ± 2.2 | –
60 K | 111.36 ± 2.5 | –
60.37 K | 112.09 ± 2.2 | –
61.22 K | 114 ± 2.3 | –
62.42 K | 116.32 ± 2.3 | –
63.41 K | 118.45 ± 2.4 | –
64.42 K | 120.61 ± 2.4 | –
65 K | 121.89 ± 2.7 | –
65.42 K | 122.92 ± 2.5 | –
66.42 K | 124.93 ± 2.5 | –
67.44 K | 127.27 ± 2.5 | –
68.45 K | 129.47 ± 2.6 | –
69.47 K | 131.89 ± 2.6 | –
70 K | 133.03 ± 2.9 | –
70.48 K | 134.15 ± 2.7 | –
71.49 K | 136.51 ± 2.7 | –
72.5 K | 138.68 ± 2.8 | –
73.5 K | 141.06 ± 2.8 | –
73.58 K | 141.14 ± 2.8 | –
74.51 K | 143.36 ± 2.9 | –
75 K | 144.64 ± 3.2 | –
75.53 K | 145.73 ± 2.9 | –
76.55 K | 148.3 ± 3 | –
77.56 K | 150.74 ± 3 | –
78.57 K | 153.39 ± 3.1 | –
79.58 K | 155.6 ± 3.1 | –
80 K | 156.55 ± 3.4 | –
80.59 K | 158.26 ± 3.2 | –
81.7 K | 160.54 ± 3.2 | –
85 K | 168.61 ± 3.7 | –
90 K | 180.67 ± 4 | –
90.71 K | 182.62 ± 3.6 | –
95 K | 193.23 ± 4.2 | –
100 K | 205.34 ± 4.5 | –
100.7 K | 205.22 ± 4.1 | –
110 K | 227.92 ± 5 | –
110.85 K | 227.84 ± 4.6 | –
120 K | 248.76 ± 5.5 | –
120.85 K | 248.93 ± 5 | –
130 K | 268.26 ± 5.9 | –
130.93 K | 269.49 ± 5.4 | –
140 K | 286.79 ± 6.3 | –
141.05 K | 288.92 ± 5.8 | –
150 K | 304.56 ± 6.7 | –
151.1 K | 307 ± 6.1 | –
160 K | 321.72 ± 7.1 | –
161.21 K | 324.93 ± 6.5 | –
170 K | 338.34 ± 7.4 | –
171.22 K | 342.32 ± 6.8 | –
180 K | 354.45 ± 7.8 | –
181.32 K | 357.51 ± 7.2 | –
190 K | 370.05 ± 8.1 | –
191.45 K | 374.2 ± 7.5 | –
200 K | 385.13 ± 8.5 | –
201.57 K | 387.79 ± 7.8 | –
210 K | 399.67 ± 8.8 | –
211.7 K | 401.38 ± 8 | –
220 K | 413.65 ± 9.1 | –
221.82 K | 416.43 ± 8.3 | –
230 K | 427.07 ± 9.4 | –
231.97 K | 429 ± 8.6 | –
240 K | 439.91 ± 9.7 | –
242.05 K | 440.09 ± 8.8 | –
250 K | 452.18 ± 9.9 | –
252.07 K | 452.65 ± 9.1 | –
260 K | 463.87 ± 10 | –
262.14 K | 465.23 ± 9.3 | –
270 K | 475 ± 10 | –
272.29 K | 475.97 ± 9.5 | –
273.15 K | 478.39 ± 11 | –
280 K | 485.58 ± 11 | –
282.37 K | 488.57 ± 9.8 | –
290 K | 495.63 ± 11 | –
292.36 K | 498.4 ± 10 | –
298.15 K | 503.44 ± 11 | –
300 K | 505.16 ± 11 | –
302.55 K | 510.46 ± 10 | –
